Source: publication PMC11013284, “Chemoselective Synthesis and Anti-Kinetoplastidal Properties of 2,6-Diaryl-4H-tetrahydro-thiopyran-4-one S-Oxides: Their Interplay in a Cascade of Redox Reactions from Diarylideneacetones” (Molecules, 2024)
Where two headings read alike, the source gives them in different places.

Key:
[1] = tested on: WT LV9 L. donovani promastigotes; test: L. donovani promastigote assay (MTT), wild type; format: cell-based; conditions: Leishmania donovani, 72 h, 3 days; read-out: IC50 ± SD WT LV9 L. donovani promastigotes
Experimental: (§1) L. donovani promastigote forms from the logarithmic phase culture were suspended to yield 10^6 cells/mL. Miltefosine was used as the antileishmanial reference compound. Compounds to be evaluated and miltefosine were distributed in the plates by making a serial dilution. The final concentrations used were between 100 µM and 50 nM. Triplicates were used for each concentration. After a 3-day incubation period at 27 °C in the dark and under a 5% CO2 atmosphere, the viability of the promastigotes was assessed using the tetrazolium-dye (MTT) colorimetric method, which measures the reduction of a tetrazolium component (MTT) into an insoluble formazan product by the mitochondria of viable cells. After the incubation of the cells with the MTT reagent, a detergent solution (Triton X100, HCl) was added to lyse the cells and dissolve the colored crystals. The absorbance at 570 nm, directly proportional to the number of viable cells, was measured using an ELISA plate reader. The results were expressed as the concentrations inhibiting parasite growth by 50% (IC50) ± SD after a 3-day incubation period.

[2] = tested on: L. infantum (MHOM/MA(BE)/67) amastigotes in primary peritoneal mouse macrophages; test: L. infantum intramacrophage amastigote assay (microscopic burden); format: cell-based, Leishmania infantum; conditions: Leishmania infantum, Macrophage, 120 h, 5 days, mouse macrophages as host
Summary of the method: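 Amastigotes in primary peritoneal mouse macrophages were exposed 5 days to 64, 16, 4, 1 and 0.25 μM compound. Amastigotes per macrophage counted microscopically; percent burden reduction versus untreated wells gave IC50.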

[3] = tested on: Trypanosoma brucei brucei trypomastigotes, suramin-sensitive strain (Squib 427); test: T. b. brucei growth/viability assay (resazurin); format: cell-based; conditions: Trypanosoma brucei, 72 h, 3 days
Experimental: After 3 days, parasite growth was assessed fluorimetrically following the addition of resazurin. After 24 h at 37 °C, fluorescence was measured (λex = 550 nm, λem = 590 nm). The results were expressed as a percentage reduction in parasite growth/viability compared to control wells, and a 50% inhibitory concentration (IC50) was calculated.

in vitro = conditions: human, CC50 hMRC-5 (cytotoxicity)
[4] = tested on: HePC-R L. donovani promastigotes; test: L. donovani promastigote assay, miltefosine-resistant strain; format: cell-based; conditions: Leishmania donovani, read-out: IC50 ± SD HePC-R L. donovani promastigotes
Experimental: as §1

murine macrophages = test: Qualitative toxicity toward mouse macrophages; conditions: concentration at which toxicity was observed; 64, 16 and 4 µM tested
Experimental: The cytotoxicity of compounds was evaluated toward human diploid embryonic lung fibroblast hMRC-5SV2 cells, derived from fetal lung tissue and first described in 1970. hMRC-5SV2 cells were cultured in 96-well plates with five concentrations of the compound (64, 16, 4, 1, and 0.25 μM). After 3 days of incubation, the cell viability was assessed fluorimetrically after the addition of resazurin, and fluorescence was measured (λex = 550 nm, λem = 590 nm). The results were expressed as a percentage reduction in cell growth/viability compared to control wells, and a 50% cytotoxic concentration (CC50) was calculated. The reference cytotoxic drugs were tamoxifen or ivermectin. Additionally, toxicity toward mouse macrophages was qualitatively observed. Three concentrations were included (64, 16, and 4 µM), and the range of toxicity was ranked from the least toxic to the most toxic compound.

[5] = tested on: L. donovani LV9 axenic amastigotes; test: L. donovani axenic amastigote assay (SYBR green I); format: cell-based, Leishmania donovani; conditions: LV9; for IC50: Leishmania donovani, read-out: IC50 ± SD L. donovani axenic amastigotes
Experimental: L. donovani amastigote forms were suspended to yield 10^7 cells/mL. The final compound concentrations used were 100 µM, 10 µM, 1 µM, 500 nM, and 50 nM. Duplicates were used for each concentration. Cultures were incubated at 37 °C for 72 h in the dark and under a 5% CO2 atmosphere; then, the viability of the amastigotes was assessed using the SYBR® green I (Invitrogen, France) incorporation method. Parasite growth was determined by using SYBR® Green I, a dye with marked fluorescence enhancement upon contact with parasite DNA. Parasites were lysed following Direct PCReCell Genotyping without DNA isolation protocol (Euromedex, Souffelweyersheim, France). A total of […] of SYBR Green I was added to each well, and the contents were mixed. Fluorescence was measured with Mastercylcer® ep realplex (Eppendorf, Montesson, France). The fluorescence obtained was compared to those from the range obtained with different parasite densities.

[6] = tested on: WT LV9 L. donovani intramacrophage amastigotes; test: L. donovani intramacrophage amastigote assay; format: cell-based, Leishmania donovani; conditions: Leishmania donovani, WT LV9; ± SD in Tables S5/S6; read-out: IC50 L. donovani intramacrophage amastigotes
[7] = tested on: Trypanosoma cruzi (Tulahuen CL2 β-galactosidase) amastigotes in hMRC-5SV2 cells; test: T. cruzi intracellular amastigote assay (β-galactosidase/CPRG); format: cell-based; conditions: Trypanosoma cruzi, TULAHUEN, 168 h, intracellular amastigotes, 7 days; read-out: IC50 T. cruzi intramacrophage amastigotes (converted)
Summary of the method: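 Infected hMRC-5SV2 fibroblasts exposed 7 days to compound at 64, 16, 4, 1 and 0.25 μM. Parasite burden read as β-galactosidase cleavage of CPRG at 540 nm after 4 h at 37 °C. Percent growth reduction versus control wells, IC50 calculated.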

[8] = tested on: Trypanosoma brucei brucei trypomastigotes, suramin-sensitive strain (Squib 427); parameters: method as in earlier work; conditions: Table 1, preliminary study; read-out: IC50 T. b. brucei; cited from earlier work
[9] = tested on: Trypanosoma cruzi (Tulahuen CL2 β-galactosidase) amastigotes in hMRC-5SV2 cells; parameters: method as in earlier work; conditions: Table 1, preliminary study; read-out: IC50 T. cruzi; cited from earlier work
[10] = Solubility observations (crystals in assay, insolubility in solvents); format: physicochemical; conditions: noted in L. donovani assay, Table S5
[11] = tested on: L. infantum (MHOM/MA(BE)/67) amastigotes in primary peritoneal mouse macrophages; parameters: method as in earlier work; conditions: Table 1, preliminary study; cited from earlier work

N#Cc1ccc(/C=C/C(=O)/C=C/c2ccc(C#N)cc2)cc1 [1t]
IC50 [1]: 6.6 ± 0.6 µM
IC50 [2]: 5.1 µM
IC50 [3]: 1.5 µM
CC50 at 3 days (in vitro): 57.1 µM
IC50 [4]: 2.4 ± 0.1 µM
observed macrophage death / lysis observed at (macrophages): > 100 µM
Toxicity (T) observed toward murine macrophages (murine macrophages): T2 (T2 = 16)
IC50 ± SD L. donovani axenic amastigotes [5]: T at 6.25-200 µM
IC50 [6]: > 50 µM
IC50 [7]: 11.9 µM

Cl.Cl.O=C(/C=C/c1ccncc1)/C=C/c1ccncc1 [1y]
IC50 [8]: ≤ 0.3 µM
IC50 [2]: 1 µM
IC50 [3]: ≤ 0.3 µM
CC50 at 3 days (in vitro): 1.1 µM
Toxicity (T) observed toward murine macrophages (murine macrophages): T3 (T3 = 4)
IC50 [9]: ≤ 0.3 µM
IC50 [7]: ≤ 0.3 µM

Cl.Cl.O=C(/C=C/c1cccnc1)/C=C/c1cccnc1 [1x]
IC50 [8]: ≤ 0.3 µM
IC50 [2]: 1 µM
IC50 [3]: ≤ 0.3 µM
CC50 at 3 days (in vitro): 1.1 µM
Toxicity (T) observed toward murine macrophages (murine macrophages): T1 (T1 = 64)
IC50 [7]: 0.9 µM

O=C(/C=C/c1ccccc1Cl)/C=C/c1ccccc1Cl [1e]
IC50 [1]: 3.6 ± 0.1 µM
IC50 [2]: 6.8 µM
IC50 [3]: 7.8 µM
CC50 at 3 days (in vitro): 29.4 µM
IC50 [4]: 7.8 ± 1 µM
observed macrophage death / lysis observed at (macrophages): > 37.5 µM
Toxicity (T) observed toward murine macrophages (murine macrophages): T2 (T2 = 16)
IC50 [5]: > 200 µM
IC50 [6]: 7.4 ± 1.7 µM
IC50 [7]: 12 µM

O=C(/C=C/c1ccc(Cl)cc1)/C=C/c1ccc(Cl)cc1 [1f]
IC50 [1]: 6.7 ± 0.6 µM
presence of crystals (asterisk mark) [10]: * (presence of crystals at > 50 µM)
IC50 [2]: > 60 µM
IC50 [3]: 2.1 µM
CC50 at 3 days (in vitro): 42.4 µM
IC50 [4]: 3.7 ± 0.2 µM
observed macrophage death / lysis observed at (macrophages): > 50 µM
IC50 [5]: > 200 µM
IC50 [6]: 6.3 ± 1.9 µM
IC50 [7]: 35.6 µM

O=C(/C=C/c1ccc(C(F)(F)F)cc1)/C=C/c1ccc(C(F)(F)F)cc1 [1r]
IC50 [11]: > 64 µM
IC50 [2]: > 64 µM
IC50 [3]: 0.2 µM
CC50 at 3 days (in vitro): 26.2 µM
IC50 [7]: 1.6 µM

COc1cc(Br)c(O)c(/C=C/C(=O)/C=C/c2cc(OC)cc(Br)c2O)c1 [1p]
IC50 [8]: ≤ 0.3 µM
IC50 [2]: 1 µM
IC50 [3]: ≤ 0.3 µM
CC50 at 3 days (in vitro): 1 µM
Toxicity (T) observed toward murine macrophages (murine macrophages): T1 (T1 = 64)
IC50 [9]: ≤ 0.3 µM
IC50 [7]: ≤ 0.3 µM

C=CCOc1ccc(OC)cc1/C=C/C(=O)/C=C/c1cc(OC)ccc1OCC=C [1n]
IC50 [2]: > 64 µM
melting point: 83 °C
IC50 [3]: 26.6 µM
CC50 at 3 days (in vitro): > 16 µM
IC50 [7]: 24.2 µM

O=C(/C=C/c1ccc(OC(F)(F)F)cc1)/C=C/c1ccc(OC(F)(F)F)cc1 [1s]
IC50 [11]: > 64 µM
IC50 [2]: > 64 µM
IC50 [3]: 0.5 µM
CC50 at 3 days (in vitro): 32.8 µM
IC50 [7]: 1.8 µM
